Data from patent publication US20030195205A1, “PDE9 inhibitors for treating cardiovascular disorders” (Pfizer Inc., priority 2001, published 2003).
Like-named read-outs stand apart in the source and are kept apart here.

Biological target: T1, purified recombinant human PDE9 (Homo sapiens, UniProt O76083)
T1 construct: FLAG; made in house; host or cells: baculovirus/Sf9
Experiment: PDE9 enzyme inhibition scintillation proximity assay ([3H]cGMP hydrolysis)
Format: biochemical
Conditions: for inhibition at 1 µM: 1 μM compound, read-out: inhibition against PDE9 at a concentration of 1 μM
Method: The ability of the compounds of the invention to inhibit the PDE9 enzyme was determined using the following in vitro assay. The assay used purified recombinant human PDE9.
The assay uses [3H]cGMP which is hydrolysed by the PDE9 enzyme to the 5′-nucleotide [3H]GMP. The [3H]GMP binds to yttrium silicate scintillation proximity assay (SPA) beads, and detected by scintillation counting. Inhibition of activity is determined relative to the activity of uninhibited controls.
Phosphodiesterase Scintillation Proximity Assay (SPA) beads (Yttrium Silicate) were obtained from Amersham Biotech.
[^3H]Guanosine 3′,5′-Cyclic Phosphate ([^3H]-cGMP), Ammonium Salt was obtained from Amersham Biotech.
Buffer A was prepared containing Tris.HCl (20 mM), MgCl2.6H2O (5 mM) in water.
Buffer B was prepared containing Bovine Serum Albumin (2 mg/ml) (BSA) in Buffer A. It was prepared fresh and filter sterilised.
PDE9 enzyme solution was prepared in Buffer B (dilution factor determined such that no more than 30% breakdown of substrate occurred, but typically 1:35,000).
SPA beads were prepared by creating a suspension of beads in water (20 mg/ml) (28 ml per pack) containing 3 mM cold cGMP to effectively quench the reaction.
The compounds of the invention were diluted by a factor of 50 (i.e. 2 μl in 100 μl) when constituted in the final assay mix. Compound stock was prepared at 4 mM in DMSO. Dilute 1/8 with DMSO to give 500 μM solutions.
A 4 mM stock of standard inhibitor was prepared in DMSO. The standard inhibitor chosen was 5-(3-bromobenzyl)-3-n-propyl-1,6-dihydro-7H-pyrazolo[4,3-d]pyrimidin-7-one. The solution was further diluted with DMSO to give a 500 μM solution.
Following serial dilution, 2 μl of compound dilutions were dispensed in duplicate into microtitre plates with 2 μl DMSO added to controls as shown below.
To the microtitre plates containing solutions of compounds of the invention (2 μl) was added Buffer A (25 μl) to all wells. Buffer B (25 μl) was added to blank wells. Enzyme solution (25 μl) was added all wells except blanks. Substrate solution (50 μl) was added to each well. The plates were sealed and incubated for 15 minutes on a plate-shaker at 30 °C. SPA bead solution (50 μl) was added (containing excess cGMP) to each well to stop the reaction (Note: yttrium silicate beads are dense and require constant agitation whilst being added to each plate). The plates were shaken for 15 minutes to allow the beads to bind the GMP product and then allowed to settle for 30 minutes.
The plates were then analysed using a scintillation counter (such as the NXT TopCount)TM.
For each compound the percentage inhibition was calculated by the following equation:
(mean maximum−compound value)/(mean maximum−mean minimum)×100
IC50 values were determined from sigmoid dose response curves of enzyme activity vs. compound concentration.

T1 sequence (O76083 whole entry): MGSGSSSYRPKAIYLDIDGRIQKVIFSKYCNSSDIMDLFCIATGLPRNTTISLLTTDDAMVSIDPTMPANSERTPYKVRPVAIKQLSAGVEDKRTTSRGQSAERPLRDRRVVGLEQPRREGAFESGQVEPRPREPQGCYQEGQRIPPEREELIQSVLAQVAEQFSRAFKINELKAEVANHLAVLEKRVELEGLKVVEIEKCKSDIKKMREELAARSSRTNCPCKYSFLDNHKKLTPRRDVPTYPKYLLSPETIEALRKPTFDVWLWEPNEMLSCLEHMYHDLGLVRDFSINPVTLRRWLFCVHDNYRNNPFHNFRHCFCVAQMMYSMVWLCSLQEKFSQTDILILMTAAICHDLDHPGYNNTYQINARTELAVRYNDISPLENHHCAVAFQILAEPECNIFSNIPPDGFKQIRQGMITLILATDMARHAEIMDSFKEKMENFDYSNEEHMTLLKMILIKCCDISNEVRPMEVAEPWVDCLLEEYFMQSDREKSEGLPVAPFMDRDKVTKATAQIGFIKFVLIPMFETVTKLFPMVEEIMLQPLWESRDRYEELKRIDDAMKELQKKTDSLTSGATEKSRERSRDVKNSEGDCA

| SMILES | inhibition at 1 µM [%] | IC50 (read-out: IC50 against PDE9) [µM] | IC50 (range the standard inhibitor was expected to fall in, read-out: IC50 of the standard) [µM] |
| --- | --- | --- | --- |
| CC(C)c1n[nH]c2c(=O)[nH]c(Cc3ccccc3Oc3ccccc3)nc12 [Compound 52, 3-isopropyl-5-(2-phenoxybenzyl)-1,6-dihydro-pyrazolo[4,3-d]pyrimidin-7-one] | > 40 | 0.126 |  |
| O=c1[nH]c(Cc2ccccc2OCc2ccccc2)nc2c(-c3cccnc3)n[nH]c12 [Compound 138, 3-(3-pyridinyl)-5-(2-benzyloxybenzyl)-1,6-dihydro-pyrazolo[4,3-d]pyrimidin-7-one] | > 40 |  |  |
| CC(C)c1n[nH]c2c(=O)[nH]c(Cc3ccccc3OC(F)(F)F)nc12 [Compound 156, 3-isopropyl-5-(2-trifluoromethoxybenzyl)-1,6-dihydro-pyrazolo[4,3-d]pyrimidin-7-one] | > 40 |  |  |
| O=c1[nH]c(Cc2ccccc2OCc2ccccc2)nc2c(C3CCCC3)n[nH]c12 [Compound 204, 3-cyclopentyl-5-(2-benzyloxybenzyl)-1,6-dihydro-pyrazolo[4,3-d]pyrimidin-7-one] | > 40 | 0.143 |  |

The next lines start with the values.

| inhibition at 1 µM [%] | IC50 (read-out: IC50 against PDE9) [µM] | IC50 (range the standard inhibitor was expected to fall in, read-out: IC50 of the standard) [µM] | SMILES |
| --- | --- | --- | --- |
| > 40 |  |  | O=c1[nH]c(Cc2ccccc2OC(F)(F)F)nc2c(C3CCCC3)n[nH]c12 [Compound 256, 3-Cyclopentyl-5-(2-trifluoromethoxybenzyl)-1,6-dihydro-pyrazolo[4,3-d]pyrimidin-7one] |
|  | 0.141 |  | O=c1[nH]c(Cc2ccccc2OC(F)(F)F)nc2c(-c3cccnc3)n[nH]c12 [Compound 258] |
| > 40 |  |  | CC(C)c1c2nc(Cc3cccc(Cl)c3)[nH]c(=O)c2nn1C [Compound 262, 5-(3-Chlorobenzyl)-3-isopropyl-2-methyl-2,6-dihydro-7H-pyrazolo[4,3-d]pyrimidin-7-one] |
| > 40 |  |  | O=c1[nH]c(Cc2ccccc2OC(F)(F)F)nc2c(-c3ccccc3)n[nH]c12 [Compound 263, 5-(2-Trifluoromethoxybenzyl)-3-phenyl-1,6-dihydro-7H-pyrazolo[4,3-d]pyrimidin-7-one] |
|  |  | 0.03 to 0.05 | CCCc1n[nH]c2c(=O)[nH]c(Cc3cccc(Br)c3)nc12 [standard, 5-(3-bromobenzyl)-3-n-propyl-1,6-dihydro-7H-pyrazolo[4,3-d]pyrimidin-7-one, reference compound] |
